≈ marks a conversion by molar mass, not a printed value. Entries after “also recorded” stand apart in the source; their conditions may differ. Non-standard residues stand in square brackets, D forms with d. Residues, ends and D or L forms follow the SMILES beside them. Orn(N5-OH,N5-Ac) = CC(=O)N(O)CCC[C@H](N)C(=O)O
Experiments:
[1] = system: E. coli MC1061 containing pCBSal; assay: MIC (LD 90) of maximally induced tetA (plasmid pCBSal); type: cell-based; details: Escherichia coli, read-out: MIC (LD 90) of Maximally Induced tetA, pCBSal
Method: (§1) E. coli MC1061 containing either pGG57, pCBSal or pGG75 were used to determine the MIC (LD 90) for tetracycline as well as six tetracycline analogs. […] MIC studies were performed in the presence of 0.01 mM IPTG for E. coli MC1061 containing pGG57. […] All of these MIC studies were done in duplicate.

[2] = system: E. coli MC1061 containing pGG57; assay: microbe, parasite or virus in culture; type: cell-based; details: Escherichia coli, read-out: MIC (LD 90) of Maximally Induced tetK, pGG57
Method: as §1

[3] = system: E. coli MC1061 containing pGG75; assay: MIC (LD 90) of maximally induced tetC (plasmid pGG75); type: cell-based; details: Escherichia coli, read-out: MIC (LD 90) of Maximally Induced tetC, pGG75
Method: as §1

strain KB3ind [4] = type: cell-based, E. coli; details: for response in the Tetracycline Assay (β-galactosidase induction): strain KB3ind, plate assay (plate or liquid assay)
Method: (§2) To detect tetracyclines, a plate assay is developed that is similar to one described previously (11). Cells are grown in Luria Broth (adjusted with NaOH to pH 7.5) with 25 μg/ml of kanamycin to a cell density of 0.5 absorbance units (600 nm). A 25 ml sample of the culture is harvested by centrifugation and resuspended in 1 ml of broth. The cells are mixed with 25 ml of soft agar (1%, wt/vol) and poured onto 100 ml of LB (pH 7.5)+ kanamycin, within a 22 cm^2 NUNC plate (Corning). Samples are applied by spotting from 2 to 15 μl, or by applying a disc impregnated with a compound, and the plate is incubated for 3-4 hours at 37° C. The plates are overlaid with a solution containing 13.5 mg of 6-bromo-2-naphthyl-β-D-galactopyranoside side and 86.5 mg of fast blue RR (Sigma) dissolved in 2 ml of dimethylsulfoxide, to which 25 ml of soft agar is added. β-Galactosidase is detected by the presence of a purple spot.

[5] = system: tetracycline efflux pump (strain KB4 or KB5); assay: Inhibition Assay, plate assay (agar with 5 ng/ml of tetracycline); for Inhibition Assay response: key: ±: Possible positive; +: Weak positive; ++: Stronger positive; -: Negative; type: cell-based, E. coli; details: for response in the Inhibition Assay: 5 ng/ml of tetracycline
Method: as §2
Two assays are developed for detecting inhibitors of the tetA gene product (using strain KB5), or the tetK gene product (using strain KB4). In the Inhibition Assay, cells of strain KB4 or KB5 are treated as described in the tetracycline screen above, except that the agar medium contains 5 ng/ml of tetracycline. Alternatively a Liquid Assay is also developed. Cells are first grown in LB (pH 7.5). Then cells are shifted to medium containing 5 ng/ml of tetracycline, and tetracycline-containing samples are added to aliquots. Cells are then incubated and assayed as described for the Tetracycline Assay. […] However, the intracellular concentration is reduced in tetracycline resistant strains due to the action of the efflux pump, so more tetracycline would be required in the medium to accumulate sufficient tetracycline inside the cell to induce. The Inhibition Assay is designed to detect compounds that cause β-galactosidase induction in the presence of sub-inducing levels of tetracycline for a resistant strain.

NK5031 (λStet158-50) = assay: Plate assay with control strain containing the cI wild type allele; type: cell-based, E. coli; details: 3 μl samples, up to 22.5 ng bleomycin, 150 ng mitomycin C or cinodine
strain KB4 or KB5 [6] = assay: Synergy Assay, plate assay (agar with 5 μg/ml of tetracycline); type: cell-based, E. coli; details: for response in the Synergy Assay: 5 μg/ml of tetracycline
Method: Two types of assays for pump inhibitors are designed using this type of screening organism. The first is a Synergy Assay, which determines the ability of a compound or composition to kill the organism in combination with tetracycline. […] In brief, in a Synergy Assay, the screening cells are treated as described above for the tetracycline assay, except that the agar medium contains 5 μg/ml of tetracycline which is near the MIC for the strains to be used in the screen. […] Alternatively, cells are treated as described above for the tetracycline liquid assay, except that cells are shifted to a medium containing 5 μg/ml of tetracycline.
(§3) In the Synergy Assay, cells are treated as above for the plate assay, except that agar medium contains 5 μg/ml of tetracycline, near the MIC for strain KB4 or KB5. […] Alternatively, cells are treated as above for the liquid assay, except that cells are shifted to medium containing 5 μg/ml of tetracycline.

strain KB4 or KB5 [7] = assay: Synergy Assay, liquid assay (5 μg/ml of tetracycline); type: cell-based, E. coli; details: liquid culture
Method: Inhibitory activity is assayed in liquid culture by growing strain KB4 in medium lacking tetracycline and then transferring to medium containing 5 ng/ml of tetracycline, a sub-inducing level of tetracycline due to the action of the efflux pump. Nocardamine is also added as indicated. After 4 generations of growth, the specific activity of β-galactosidase is determined in Miller Units (10). […] Alternatively, aliquots of KB4 are transferred to a medium containing 5 μg/ml of tetracycline and the nocardamine concentration indicated.
as §3

[8] = system: Tn10 derivative of strain KB3ind; assay: Growth in LB medium with nocardamine, Tn10 strain; type: cell-based, E. coli; details: for effect on growth in combination with tetracycline: Tn10 strain, 20 μg/ml or 25 μg/ml of tetracycline; for effect on growth, tetracycline absent: no tetracycline in medium
Method: (§4) Cells are grown in LB medium lacking tetracycline, as described in the text, and then aliquots are added to medium containing no tetracycline, or a sub-inhibitory concentration for the particular strain. Nocardamine (μg/ml) is present or absent as indicated.

strain KB4 = assay: Growth in LB medium with nocardamine, strain KB4; type: cell-based, E. coli; details: strain KB4, 5 μg/ml of tetracycline
Method: as §4

strain KB3ind [9] = assay: Growth in LB medium with nocardamine, strain KB3ind; type: cell-based, E. coli; details: tetracycline-sensitive strain KB3ind, 0.5 μg/ml of tetracycline
Method: FIG. 10 (Parts A, B and C) illustrates the effect of nocardamine on the growth of tetracycline sensitive and resistant cells. Cells are grown in LB medium lacking tetracycline, as described in the text, and then aliquots are added to medium containing no tetracycline, or a sub-inhibitory concentration for the particular strain. Nocardamine (μg/ml) is present or absent as indicated. For strain KB3ind, the tetracycline-sensitive strain, the sub-inhibitory concentration of tetracycline is 0.5 μg/ml. For the Tn10 derivative of strain KB3ind, 20 μg/ml of tetracycline is the sub-inhibitory level. For strain KB4, the modestly tetracycline-resistant organism, 5 μg/ml of tetracycline is the sub-inhibitory concentration.
Throughout, for Induction Assay response: key: ±: Possible positive; +: Weak positive; ++: Stronger positive; -: Negative.

| Compound | MIC [1] [µg/mL] | MIC [2] [µg/mL] | MIC [3] [µg/mL] | response in the Tetracycline Assay (β-galactosidase induction) (strain KB3ind [4]) | response in the Inhibition Assay ([5]; plate assay) | response in the Synergy Assay (strain KB4 or KB5 [6]) | also measured |
| --- | --- | --- | --- | --- | --- | --- | --- |
| CN(C)[C@@H]1C(=O)C(C(N)=O)=C(O)[C@@]2(O)C(=O)C3=C(O)c4c(O)cccc4C[C@H]3C[C@@H]12 [6-demethyl 6-deoxyTc, 6-demethyl-6-deoxytetracycline] | 20 (≈ 48.3 µM) | 7 (≈ 16.9 µM) | 20 (≈ 48.3 µM) | capable of detecting |  |  |  |
| Cc1c2c(c(O)c3c(O)cccc13)C(=O)C1(O)C(O)=C(C(N)=O)C(=O)C(N(C)C)C1C2 (centres unmarked) [AnhydroTc] | 3 (≈ 7.04 µM) | 2 (≈ 4.69 µM) | 2 (≈ 4.69 µM) |  |  |  |  |
| CN(C)[C@@H]1C(O)=C(C(N)=O)C(=O)[C@@]2(O)C(O)=C3C(=O)c4c(O)ccc(Cl)c4[C@@](C)(O)[C@H]3C[C@@H]12 [ChlorTc, chlortetracycline] | 50 (≈ 104 µM) | 40 (≈ 83.5 µM) | 40 (≈ 83.5 µM) | capable of detecting |  |  |  |
| C[C@H]1c2cccc(O)c2C(O)=C2C(=O)[C@]3(O)C(O)=C(C(N)=O)C(=O)[C@@H](N(C)C)[C@@H]3[C@@H](O)[C@@H]21 [DoxyTc, doxycycline] | 40 (≈ 90 µM) | 7 (≈ 15.8 µM) | 20 (≈ 45 µM) | capable of detecting |  |  |  |
| CN(C)c1ccc(O)c2c1C[C@H]1C[C@H]3[C@H](N(C)C)C(O)=C(C(N)=O)C(=O)[C@@]3(O)C(O)=C1C2=O [Minocycline] | 14 (≈ 30.6 µM) | 4 (≈ 8.74 µM) | 8 (≈ 17.5 µM) | capable of detecting |  |  |  |
| CO[C@@]12[C@H](COC(N)=O)C3=C(C(=O)C(C)=C(N)C3=O)N1C[C@@H]1N[C@@H]12 [Mitomycin] |  |  |  | No β-galactosidase is detected |  |  | Induction Assay response (strain KB3ind [4]): -; Inhibition Assay response ([5]; disc on assay plate): -; β-galactosidase induction in control strain (cI wild type allele) (NK5031 (λStet158-50)): inducing β-galactosidase |
| C/C(=C/C(=O)N([O-])CCCC1NC(=O)CNC(=O)C(CO)NC(=O)C(CO)NC(=O)C(CCCN([O-])C(=O)/C=C(/C)CC(=O)O)NC(=O)C(CCCN([O-])C(=O)/C=C(\C)CC(=O)O)NC1=O)CC(=O)O.[Fe+3] (centres unmarked) [ferrichromeA] |  |  |  |  | test positive | test positive |  |
| CC(=O)N([O-])CCC[C@@H]1NC(=O)CNC(=O)CNC(=O)CNC(=O)[C@H](CCCN([O-])C(C)=O)NC(=O)[C@H](CCCN([O-])C(C)=O)NC1=O.[Fe+3] [ferrichrome] (cyclo(GGG[Orn(N5-OH,N5-Ac)][Orn(N5-OH,N5-Ac)][Orn(N5-OH,N5-Ac)])) |  |  |  |  | test positive | test positive |  |
| CCCCc1ccc(C(=O)O)nc1 [fusaric acid] |  |  |  |  | do not test positive | do not test positive |  |
| O=C1CCC(=O)N(O)CCCCCNC(=O)CCC(=O)N(O)CCCCCNC(=O)CCC(=O)N(O)CCCCCN1 [nocardamine] |  |  |  | no response | induction | differential growth inhibition | response in the Inhibition Assay ([5]; plate assay, listed as Nocardamine): detected; amount sufficient to detect activity in the Inhibition Assay ([5]; plate assay, strains KB4 and KB5): One; response in the Synergy Assay (strain KB4 or KB5 [6]; listed as Nocardamine): detected; amount sufficient to detect activity in the Synergy Assay (strain KB4 or KB5 [6]; strains KB4 and KB5): One; effect on β-galactosidase production / growth (strain KB4 or KB5 [7]): marked decrease in β-galactosidase; also recorded: growth inhibition; effect on growth in combination with tetracycline [8]: severe growth inhibition; also recorded: inhibits growth; effect on growth in combination with tetracycline ([8]; listed as Nocardamine): inhibits the growth; effect on growth, tetracycline absent [8]: little or no effect; effect on growth, tetracycline absent ([8]; listed as Nocardamine): little effect; effect on growth in combination with tetracycline (strain KB4): severe growth inhibition; effect on growth in combination with tetracycline (strain KB3ind [9]): affects the growth; also recorded: is affected |
| CN(C)C1C(=O)C(C(N)=O)=C(O)C2(O)C(=O)C3=C(O)c4c(O)cccc4C(C)(O)C3C(O)C12 (centres unmarked) [oxyTc] | > 300 | 250 (≈ 543 µM) | 300 (≈ 652 µM) |  |  |  |  |
| bleomycin |  |  |  | No β-galactosidase is detected |  |  | β-galactosidase induction in control strain (cI wild type allele) (NK5031 (λStet158-50)): inducing β-galactosidase |
| cinodine |  |  |  | No β-galactosidase is detected |  |  | β-galactosidase induction in control strain (cI wild type allele) (NK5031 (λStet158-50)): inducing β-galactosidase |

— patent US5789188A, “Tetracycline-efflux pump inhibitor screening methods” (priority 1996, dated 1998)
